Test results as given in PMC8698377, “In Vitro Hepatic Assessment of Cineole and Its Derivatives in Common Brushtail Possums (Trichosurus vulpecula) and Rodents” (Biology, 2021).

How the values were obtained:
CYP3A [1] = test: CYP3A catalytic activity (erythromycin-N-demethylation), possum hepatic microsomes; assay type: in vitro ADME, possum (Trichosurus vulpecula); details: for activity at 30 min, 12.5 µM / activity at 30 min, 25 µM: possum (Trichosurus vulpecula), liver microsomes, pH 7.4, probe erythromycin, read-out: CYP3A catalytic activity, % of Control
Description: (§1) Microsomal preparation was as previously outlined. Individual livers were placed in beakers containing 1.15% KCl. All the procedures were carried out at 0–4 °C. The liver samples were minced and homogenised in buffer A (0.1 M Tris, 0.1 M potassium chloride, 1 mM EDTA, and 20 μM butylated hydroxytoluene, at pH = 7.4) using the Teflon-glass homogeniser (5–6 vertical passes). The samples were centrifuged for 20 min at 10,000× g. The supernatant was then transferred into another set of centrifuge tubes and spun for 60 min at 100,000× g. The pellet was resuspended in Buffer B (0.1 M potassium pyrophosphate, 1 mM EDTA, and 20 μM butylated hydroxytoluene, at pH = 7.4), homogenised and recentrifuged for 60 min at 100,000× g. Finally, the pellet was homogenised in 1–2 mL of Buffer C (10 mM Tris-HCl, 1 mM EDTA, and 4% glycerol (v/v)) and stored at […] until used. The protein concentration of the microsomes was determined using the Bicinchoninic acid (BCA) method.
(§2) CYP3A catalytic activity was determined using the erythromycin-N-demethylation activity assay as described previously. The reaction mixture (final volume of 1 mL and final protein concentration of 1 mg) contained 500 µL of microsomes in 0.1 M phosphate buffer (pH = 7.4), 400 µL of erythromycin buffer (0.45 mM), and 50 µL of the test compound was pre-warmed at 37 °C for 2 min. The reaction was initiated with 50 µL of 2.5 mM […] and incubated at 37 °C for 30 min (optimised incubation time). The reaction was stopped with the addition of 330 µL of 15% zinc sulphate. Tubes were vortexed and left for 5 min (at room temperature) and then 330 µL of saturated barium hydroxide was added. Tubes were further vortexed and left for 5 min (at room temperature). Tubes were then centrifuged at 1800 g for 10 min. To 830 µL of the supernatant, 330 µL of Nash reagent (30% (w/v) ammonium acetate, 0.4% (v/v) acetyl acetone) was added and further incubated at 60 °C for 30 min. The blank tube contained 330 µL of Nash reagent and 830 µL of Milli-Q-water. The tubes were centrifuged again at 1800× g for 10 min and the absorbance was read at 415 nm. Results presented are the mean ± SEM of 3 independent experiments conducted in duplicate.

CYP3A [2] = test: CYP3A catalytic activity (erythromycin-N-demethylation), rat hepatic microsomes; assay type: in vitro ADME; details: for activity at 30 min, 12.5 µM / activity at 30 min, 25 µM: liver microsomes, pH 7.4, probe erythromycin, read-out: CYP3A catalytic activity, % of Control
Description: as §1, §2

UGT [3] = test: p-nitrophenol glucuronidation, possum hepatic microsomes; assay type: in vitro ADME, possum (Trichosurus vulpecula)
Description: as §1
(§3) The rate of p-nitrophenol glucuronidation was determined as previously reported. In short, the incubation mixture (500 µL in total) contained; 100 µL of 1 mg/mL microsomes, 50 µL of 1 M Tris-HCl (pH = 7.4), 20 µL of 0.25% (v/v) Triton-X 100, 50 µL of 50 mM MgCl2, 130 µL of double distilled water, 50 µL of 5 mM p-nitrophenol, 50 µL of the test compound, and 50 µL of uridine 5′-diphosphoglucuronic acid trisodium salt (UDPGA). The blank tubes had all components except UDPGA and microsomes; instead, 150 µL of 0.1 M phosphate buffer was added to equal the volume as the reaction mixture. The reaction mixture and the blank were incubated at 37 °C for 2 min. Then, 50 µL of 30 mM UDPGA was added to initiate the reaction which proceeded at 37 °C for 30 min (optimised incubation time). The reaction was stopped using 1 mL of 5% trichloroacetic acid (TCA). The tubes were centrifuged at 1800 g for 10 min and then 1 mL of supernatant was added to 250 µL of 2 M sodium hydroxide (NaOH). The absorbance was read at 405 nm. The sample reading was subtracted from the blank absorbance and divided by the extinction coefficient of p-nitrophenol ([…]) and the light path of the spectrophotometer (1 cm). The glucuronidation activities are expressed in µmol/mg/min and are the mean ± SEM of 3 independent experiments conducted in duplicate.

UGT [4] = test: p-nitrophenol glucuronidation, mouse hepatic microsomes; assay type: in vitro ADME
Description: as §1, §3

UGT [5] = test: p-nitrophenol glucuronidation, rat hepatic microsomes; assay type: in vitro ADME
Description: as §1, §3

CYP3A [6] = test: CYP3A catalytic activity (erythromycin-N-demethylation), mouse hepatic microsomes; assay type: in vitro ADME; details: for activity at 30 min, 12.5 µM / activity at 30 min, 25 µM: read-out: CYP3A catalytic activity, % of Control
Description: as §1, §2

dogs = details: cited from earlier work
rats = test system: rats; parameters: method as in PMID 6068552; details: cited from earlier work
mice = test system: mice; parameters: method as in earlier work; details: cited from earlier work
humans = test system: humans; parameters: method as in PMID 7651249; details: cited from earlier work
[7] = test system: CYP enzymes (preferably CYP3A); parameters: method as in PMID 11465406; details: possums; cited from earlier work
possums = test system: possums; parameters: method as in doi:10.1023/A:1020863216892; details: cited from earlier work
[8] = liver microsomes, pH 7.4, probe erythromycin, 12.5 µM
[9] = liver microsomes, pH 7.4, probe erythromycin, 25 µM

Row | Structure (SMILES) | CYP3A catalytic activity (CYP3A [1]; 12.5 µM) [nmol/mg/min] | CYP3A catalytic activity (CYP3A [1]; 25 µM) [nmol/mg/min] | activity at 30 min, 12.5 µM (CYP3A [1]; 12.5 µM) [%] | activity at 30 min, 25 µM (CYP3A [1]; 25 µM) [%] | CYP3A catalytic activity (CYP3A [2]; 12.5 µM) [nmol/mg/min] | CYP3A catalytic activity (CYP3A [2]; 25 µM) [nmol/mg/min] | activity at 30 min, 12.5 µM (CYP3A [2]; 12.5 µM) [%] | activity at 30 min, 25 µM (CYP3A [2]; 25 µM) [%] | p-nitrophenol glucuronidation activity (UGT [3]; 12.5 µM) [µmol/mg/min] | p-nitrophenol glucuronidation, % of Control (UGT [3]; 12.5 µM) [%] | p-nitrophenol glucuronidation activity (UGT [3]; 25 µM) [µmol/mg/min] | p-nitrophenol glucuronidation, % of Control (UGT [3]; 25 µM) [%] | p-nitrophenol glucuronidation activity (UGT [4]; 12.5 µM) [µmol/mg/min] | p-nitrophenol glucuronidation, % of Control (UGT [4]; 12.5 µM) [%] | p-nitrophenol glucuronidation activity (UGT [4]; 25 µM) [µmol/mg/min] | p-nitrophenol glucuronidation, % of Control (UGT [4]; 25 µM) [%] | p-nitrophenol glucuronidation activity (UGT [5]; 12.5 µM) [µmol/mg/min] | p-nitrophenol glucuronidation, % of Control (UGT [5]; 12.5 µM) [%] | p-nitrophenol glucuronidation activity (UGT [5]; 25 µM) [µmol/mg/min] | p-nitrophenol glucuronidation, % of Control (UGT [5]; 25 µM) [%] | other results
1 | CC12CCC(CC1=O)C2(C)C (centres unmarked) [Camphor, camphor] | 0.40 ± 0.03 | 0.41 ± 0.03 | 102 ± 2.05 | 104 ± 2.57 | 0.63 ± 0.03 | 0.59 ± 0.04 | 101 ± 3.99 | 95 ± 1.81 | 4.01 ± 0.33 | 102.42 ± 1.78 | 3.97 ± 0.33 | 101.32 ± 1.34 | 2.42 ± 0.08 | 104.80 ± 1.79 | 2.31 ± 0.09 | 100.10 ± 2.45 | 2.62 ± 0.09 | 102.59 ± 1.43 | 2.72 ± 0.24 | 106.26 ± 6.99 | CYP3A catalytic activity (CYP3A [6]; 12.5 µM): 0.68 ± 0.02 nmol/mg/min; CYP3A catalytic activity (CYP3A [6]; 25 µM): 0.68 ± 0.03 nmol/mg/min; activity at 30 min, 12.5 µM (CYP3A [6]; [8]): 97.1 ± 2.15%; activity at 30 min, 25 µM (CYP3A [6]; [9]): 96.3 ± 3.21%
2 | CC12CCC(CC1)C(C)(C)O2 [Cineole, 1,3,3-trimethyl-2-oxabicyclo [2.2.2]octane] | 0.40 ± 0.01 | 0.41 ± 0.01 | 99.5 ± 2.67 | 101.9 ± 0.29 | 0.64 ± 0.05 | 0.65 ± 0.05 | 101 ± 2.31 | 101 ± 1.62 | 4.09 ± 0.18 | 99.39 ± 1.71 | 4.18 ± 0.13 | 101.80 ± 1.12 | 2.00 ± 0.16 | 100.36 ± 1.99 | 1.90 ± 0.16 | 94.21 ± 1.51 | 2.46 ± 0.12 | 90.25 ± 6.49 | 2.67 ± 0.21 | 98.18 ± 9.75 | inhibition of CYP3A catalytic activity (CYP3A [1]; 50 µM): no major inhibition; toxic dose following ingestion (dogs): 1500 mg/kg; inhibition of CYP3A catalytic activity (CYP3A [2]; 50 µM): no major inhibition; toxic dose following ingestion (rats): 2500 mg/kg; inhibition of p-nitrophenol glucuronidation (UGT [3]; 50 µM): failed to significantly inhibit; inhibition of p-nitrophenol glucuronidation (UGT [4]; 50 µM): failed to significantly inhibit; toxic dose following ingestion (mice): 50 mg/kg; inhibition of p-nitrophenol glucuronidation (UGT [5]; 50 µM): failed to significantly inhibit; toxic dose following ingestion (humans): < 1000 mg/kg; share of total intrinsic clearance, 3-hydroxycineole [7]: 14%; share of total intrinsic clearance, 7-hydroxycineole [7]: 11%; share of total intrinsic clearance, conversion to 9-hydroxycineole [7]: 75%; CYP3A catalytic activity (CYP3A [6]; 12.5 µM): 0.68 ± 0.02 nmol/mg/min; CYP3A catalytic activity (CYP3A [6]; 25 µM): 0.64 ± 0.02 nmol/mg/min; activity at 30 min, 12.5 µM (CYP3A [6]; [8]): 101 ± 2.93%; activity at 30 min, 25 µM (CYP3A [6]; [9]): 94.5 ± 2.69%; activity at 30 min, 50 µM (CYP3A [6]; liver microsomes, pH 7.4, probe erythromycin, 50 µM, read-out: CYP3A catalytic activity, % of control): 89.3%; toxic dose following ingestion (possums): 3600 mg/kg
